In general, Kd refers to a measure of binding affinity in units of concentration. A word on the EC50: it is the concentration that produces a half-maximal response.

Assay [1] addresses T1, Neuronal acetylcholine receptor subunit alpha-7 (Homo sapiens, UniProt P36544). Briefly: Displacement of [125I]alpha-bungarotoxin from alpha7 nAChR. In general terms: Displacement assays read how much labelled ligand stays bound in the presence of the test substance.
The target of assay [2] is T1, Neuronal acetylcholine receptor subunit alpha-7. Briefly: Agonist activity at human cloned wild-type alpha7 nAChR expressed in Xenopus laevis oocytes assessed as channel opening by voltage clamp electrophysiology. Type of assay: functional, cell-based, Oocyte.
A short description of assay [3]: Agonist activity at human cloned alpha7 nAChR Gln117Phe mutant expressed in Xenopus laevis oocytes assessed as channel opening by voltage clamp electrophysiology. It is filed as functional, cell-based. The settings on record: Oocyte.

T1 sequence (P36544 whole entry): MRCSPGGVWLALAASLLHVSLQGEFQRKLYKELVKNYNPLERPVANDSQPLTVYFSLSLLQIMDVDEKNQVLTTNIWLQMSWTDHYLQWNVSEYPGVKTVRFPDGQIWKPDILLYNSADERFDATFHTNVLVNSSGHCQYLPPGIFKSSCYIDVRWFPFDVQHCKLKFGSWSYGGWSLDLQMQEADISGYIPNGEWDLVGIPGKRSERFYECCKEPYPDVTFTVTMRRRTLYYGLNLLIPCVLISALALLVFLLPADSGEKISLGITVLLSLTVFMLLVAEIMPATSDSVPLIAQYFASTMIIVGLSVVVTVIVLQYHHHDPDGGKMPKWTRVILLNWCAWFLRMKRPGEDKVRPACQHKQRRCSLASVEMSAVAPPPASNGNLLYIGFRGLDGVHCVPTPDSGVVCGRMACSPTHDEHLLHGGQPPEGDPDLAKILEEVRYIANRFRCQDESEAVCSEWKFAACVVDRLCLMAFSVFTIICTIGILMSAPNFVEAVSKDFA

As for `O=C1NC[C@@]2(CN3CCC2CC3)O1`, the equilibrium dissociation constant (Kd) in assay [1] was found to be 92 nM. Besides, the EC50 came to 3600 nM in assay [2] and 22300 nM in assay [3]. For the compound `CCN1C[C@@]2(CN3CCC2CC3)OC1=O`, the dissociation constant (Kd) in assay [1] is 690 nM.

Turning to `COc1ccc(/C=C2\CCCN=C2c2cccnc2)c(OC)c1` [GTS-21], in assay [1], binding was characterised by a dissociation constant (Kd) of 158 nM.
